Each block holds one compound with its values, some of them ahead of it.
Tests used:
[1] = Dissolution test of poorly-soluble substances using distilled water; assay type: physicochemical
[2] = Dissolution test of poorly-soluble substances using 2nd fluid for disintegration test (pH 6.8) of the Japanese Pharmacopoeia; assay type: physicochemical
Description: From initiation of the test, the mixed solution was stirred with a stirrer having a length of 15 mm. The rotation number of the stirrer was 120 rpm, and all of the tests were conducted in a thermostat at 37±0.5° C. Two types of test solutions, namely, distilled water and 2nd fluid for disintegration test (pH 6.8) of the Japanese Pharmacopoeia were used. As such 2nd fluid for disintegration test of the Japanese Pharmacopoeia, a solution prepared by diluting the 10-fold concentration solution of Kanto Kagaku Co., Ltd. with distilled water was used.
A comparative test was carried out in the same manner as that described above with the exception that a poorly-soluble substance or the like was used in an amount equal to that of a substance with improved aqueous solubility, instead of the substance with improved aqueous solubility.
1 mL of the solution was sampled in an Eppendorf centrifuge tube, 1, 3, 10, 30, 60, 180 and 360 minutes after initiation of the test. The thus sampled solution was centrifuged at 12,000 rpm for 5 minutes. […] In the case of the comparative test, the poorly-soluble substance or the like, which had not been dissolved in the solution, was removed. An aliquot of this supernatant was immediately frozen. The frozen sample was freeze-dried, and it was then used as a sample in the measurement of the amount of the substance with improved aqueous solubility, which had been dissolved in the test solution. The dissolved poorly-soluble substance was measured mainly using a dual wavelength absorption photometer.

[3] = after dissolution test for 360 minutes, distilled water, 37±0.5° C.
[4] = 2nd fluid for disintegration test, elution time 1 min
[5] = 2nd fluid for disintegration test, elution time 3 min
[6] = 2nd fluid for disintegration test, elution time 10 min
[7] = 2nd fluid for disintegration test, elution time 30 min
[8] = 2nd fluid for disintegration test, elution time 60 min
[9] = 2nd fluid for disintegration test, elution time 180 min
[10] = 2nd fluid for disintegration test, elution time 360 min
[11] = after dissolution test for 360 minutes, Second disintegration test medium (pH 6.8), 37±0.5° C.
[12] = 2nd fluid for disintegration test, elution time 120 min

SMILES: CCCCCCC(=O)O[C@H]1CC[C@H]2[C@@H]3CCc4cc(O)ccc4[C@H]3CC[C@]12C [compound 44, Estradiol Enanthate]
Dissolved amount ([1]; Estradiol Enanthate, water, elution time 3 min): 1.6 µg/mL
Dissolved amount ([1]; Estradiol Enanthate, water, elution time 10 min): 1.4 µg/mL
Dissolved amount ([1]; Estradiol Enanthate, water, elution time 30 min): 1.8 µg/mL
Dissolved amount ([1]; Estradiol Enanthate, water, elution time 120 min): 1.6 µg/mL
Dissolved amount ([1]; Estradiol Enanthate, water, elution time 360 min): 1.3 µg/mL
Dissolved amount ([2]; Estradiol Enanthate, 2nd fluid for disintegration test, elution time 3 min): 7.9 µg/mL
Dissolved amount ([2]; Estradiol Enanthate, 2nd fluid for disintegration test, elution time 30 min): 7.0 µg/mL
Dissolved amount ([2]; Estradiol Enanthate, 2nd fluid for disintegration test, elution time 120 min): 19.0 µg/mL
Dissolved amount ([2]; Estradiol Enanthate, 2nd fluid for disintegration test, elution time 360 min): 10.9 µg/mL

SMILES: CCCN(CCC)S(=O)(=O)c1ccc(C(=O)O)cc1 [compound 38, Probenecid]
Dissolved amount ([1]; Probenecid, water, elution time 3 min): 10.7 µg/mL
Dissolved amount ([1]; Probenecid, water, elution time 10 min): 22.7 µg/mL
Dissolved amount ([1]; Probenecid, water, elution time 30 min): 33.4 µg/mL
Dissolved amount ([1]; Probenecid, water, elution time 120 min): 39.8 µg/mL
Dissolved amount ([1]; Probenecid, water, elution time 360 min): 37.5 µg/mL
Dissolved amount ([2]; Probenecid, 2nd fluid for disintegration test, elution time 3 min): 386.2 µg/mL
Dissolved amount ([2]; Probenecid, 2nd fluid for disintegration test, elution time 10 min): 1107.2 µg/mL
Dissolved amount ([2]; Probenecid, 2nd fluid for disintegration test, elution time 30 min): 1315.0 µg/mL
Dissolved amount ([2]; Probenecid, 2nd fluid for disintegration test, elution time 120 min): 2619.5 µg/mL
Dissolved amount ([2]; Probenecid, 2nd fluid for disintegration test, elution time 360 min): 3715.9 µg/mL

SMILES: COc1ccc2c(c1)c(CC(=O)O)c(C)n2C(=O)c1ccc(Cl)cc1 [compound 20, Indomethacin]
Dissolved amount ([1]; water, elution time 3 min): 7.8 µg/mL
Dissolved amount ([1]; water, elution time 10 min): 7.9 µg/mL
Dissolved amount ([1]; water, elution time 30 min): 8.0 µg/mL
Dissolved amount ([1]; water, elution time 120 min): 8.5 µg/mL
Dissolved amount ([1]; water, elution time 360 min): 8.2 µg/mL
Dissolved amount [2, 5]: 627.9 µg/mL
Dissolved amount [2, 6]: 693.7 µg/mL
Dissolved amount [2, 7]: 821.8 µg/mL
Dissolved amount [2, 12]: 928.5 µg/mL
Dissolved amount [2, 10]: 1114.4 µg/mL

SMILES: Cc1ccc(S(=O)(=O)NC(=O)NN2CC3CCCC3C2)cc1 (stereo not shown) [compound 32, Gliclazide]
Dissolved amount ([1]; Gliclazide, water, elution time 3 min): 11.1 µg/mL
Dissolved amount ([1]; Gliclazide, water, elution time 10 min): 26.3 µg/mL
Dissolved amount ([1]; Gliclazide, water, elution time 30 min): 35.4 µg/mL
Dissolved amount ([1]; Gliclazide, water, elution time 120 min): 38.8 µg/mL
Dissolved amount ([1]; Gliclazide, water, elution time 360 min): 39.3 µg/mL
Dissolved amount ([2]; Gliclazide, 2nd fluid for disintegration test, elution time 3 min): 80.1 µg/mL
Dissolved amount ([2]; Gliclazide, 2nd fluid for disintegration test, elution time 30 min): 296.1 µg/mL
Dissolved amount ([2]; Gliclazide, 2nd fluid for disintegration test, elution time 120 min): 420.2 µg/mL
Dissolved amount ([2]; Gliclazide, 2nd fluid for disintegration test, elution time 360 min): 429.4 µg/mL

SMILES: CCN(CC)CCNC(=O)c1cc(Cl)c(N)cc1OC [compound 33, Metoclopramide]
Dissolved amount ([1]; Metoclopramide, water, elution time 3 min): 6159.5 µg/mL
Dissolved amount ([1]; Metoclopramide, water, elution time 10 min): 5382.3 µg/mL
Dissolved amount ([1]; Metoclopramide, water, elution time 30 min): 5437.6 µg/mL
Dissolved amount ([1]; Metoclopramide, water, elution time 120 min): 5478.0 µg/mL
Dissolved amount ([1]; Metoclopramide, water, elution time 360 min): 5654.9 µg/mL
Dissolved amount ([2]; Metoclopramide, 2nd fluid for disintegration test, elution time 3 min): 12420.8 µg/mL
Dissolved amount ([2]; Metoclopramide, 2nd fluid for disintegration test, elution time 30 min): 13285.5 µg/mL
Dissolved amount ([2]; Metoclopramide, 2nd fluid for disintegration test, elution time 360 min): 13564.1 µg/mL

SMILES: CN/C(=N/CCSCc1nc[nH]c1C)NC#N [compound 19, Cimetidine]
Dissolved amount ([1]; Dissolution test using water, elution time 10 min): 8160.2 µg/mL
Dissolved amount ([1]; Dissolution test using water, elution time 30 min): 7564.5 µg/mL
Dissolved amount ([1]; Dissolution test using water, elution time 120 min): 7898.3 µg/mL
Dissolved amount ([1]; Dissolution test using water, elution time 360 min): 7166.4 µg/mL
Dissolved amount [2, 5]: 8676.7 µg/mL
Dissolved amount [2, 12]: 9475.2 µg/mL
Dissolved amount [2, 10]: 8810.0 µg/mL

SMILES: NC(N)=Nc1nc(CSCCC(N)=NS(N)(=O)=O)cs1 [Comparative Example 17, Famotidine]
Dissolved amount ([1]; water, elution time 1 min): 1162.9 µg/mL
Dissolved amount ([1]; water, elution time 3 min): 1416.8 µg/mL
Dissolved amount ([1]; water, elution time 10 min): 1502.6 µg/mL
Dissolved amount ([1]; water, elution time 30 min): 1566.8 µg/mL
Dissolved amount ([1]; water, elution time 60 min): 1565.8 µg/mL
Dissolved amount ([1]; water, elution time 180 min): 1509.8 µg/mL
Dissolved amount ([1]; water, elution time 360 min): 1497.4 µg/mL
Dissolved amount [2, 4]: 1980.2 µg/mL
Dissolved amount [2, 5]: 2286.6 µg/mL
Dissolved amount [2, 6]: 2541.7 µg/mL
Dissolved amount [2, 7]: 2600.9 µg/mL
Dissolved amount [2, 8]: 2667.9 µg/mL
Dissolved amount [2, 10]: 2410.4 µg/mL

Continued, values first:

Dissolved amount [1, 3]: 1.2 µg/mL
Dissolved amount ([1]; water, elution time 1 min): 0.6 µg/mL
Dissolved amount ([1]; water, elution time 3 min): 0.6 µg/mL
Dissolved amount ([1]; water, elution time 10 min): 0.7 µg/mL
Dissolved amount ([1]; water, elution time 30 min): 0.9 µg/mL
Dissolved amount ([1]; water, elution time 60 min): 1.0 µg/mL
Dissolved amount ([1]; water, elution time 180 min): 1.1 µg/mL
Dissolved amount ([1]; water, elution time 360 min): 1.2 µg/mL
Dissolved amount [2, 4]: 1.4 µg/mL
Dissolved amount [2, 5]: 1.4 µg/mL
Dissolved amount [2, 6]: 1.8 µg/mL
Dissolved amount [2, 7]: 1.0 µg/mL
Dissolved amount [2, 8]: 1.0 µg/mL
Dissolved amount [2, 9]: 2.3 µg/mL
Dissolved amount [2, 10]: 2.8 µg/mL
Dissolved amount [2, 11]: 2.8 µg/mL
SMILES: CC(=O)O[C@]1(C(C)=O)CC[C@H]2[C@@H]3C=C(Cl)C4=CC(=O)CC[C@]4(C)[C@H]3CC[C@@]21C [Comparative Example 3-2, Chlormadinone acetate]

Dissolved amount ([1]; Carvedilol, water, elution time 3 min): 5.2 µg/mL
Dissolved amount ([1]; Carvedilol, water, elution time 10 min): 8.3 µg/mL
Dissolved amount ([1]; Carvedilol, water, elution time 30 min): 10.0 µg/mL
Dissolved amount ([1]; Carvedilol, water, elution time 120 min): 15.0 µg/mL
Dissolved amount ([1]; Carvedilol, water, elution time 360 min): 16.0 µg/mL
Dissolved amount ([2]; Carvedilol, 2nd fluid for disintegration test, elution time 3 min): 13.9 µg/mL
Dissolved amount ([2]; Carvedilol, 2nd fluid for disintegration test, elution time 10 min): 26.3 µg/mL
Dissolved amount ([2]; Carvedilol, 2nd fluid for disintegration test, elution time 30 min): 48.6 µg/mL
Dissolved amount ([2]; Carvedilol, 2nd fluid for disintegration test, elution time 120 min): 44.1 µg/mL
Dissolved amount ([2]; Carvedilol, 2nd fluid for disintegration test, elution time 360 min): 45.1 µg/mL
SMILES: COc1ccccc1OCCNCC(O)COc1cccc2[nH]c3ccccc3c12 (stereo not shown) [compound 49, Carvedilol]

Dissolved amount [1, 3]: 9.7 µg/mL
Dissolved amount ([1]; water, elution time 1 min): 0.7 µg/mL
Dissolved amount ([1]; water, elution time 3 min): 2.7 µg/mL
Dissolved amount ([1]; water, elution time 10 min): 3.7 µg/mL
Dissolved amount ([1]; water, elution time 30 min): 6.1 µg/mL
Dissolved amount ([1]; water, elution time 60 min): 7.6 µg/mL
Dissolved amount ([1]; water, elution time 180 min): 8.3 µg/mL
Dissolved amount ([1]; water, elution time 360 min): 9.7 µg/mL
Dissolved amount [2, 4]: 4.7 µg/mL
Dissolved amount [2, 5]: 14.9 µg/mL
Dissolved amount [2, 6]: 19.9 µg/mL
Dissolved amount [2, 7]: 21.2 µg/mL
Dissolved amount [2, 8]: 21.8 µg/mL
Dissolved amount [2, 9]: 26.8 µg/mL
Dissolved amount [2, 10]: 28.0 µg/mL
Dissolved amount [2, 11]: 28.0 µg/mL
SMILES: CC(C)(Sc1cc(C(C)(C)C)c(O)c(C(C)(C)C)c1)Sc1cc(C(C)(C)C)c(O)c(C(C)(C)C)c1 [Comparative Example 5-3, Probucol]

Dissolved amount ([1]; water, elution time 1 min): 2668.0 µg/mL
Dissolved amount ([1]; water, elution time 3 min): 4621.4 µg/mL
Dissolved amount ([1]; water, elution time 30 min): 6792.2 µg/mL
Dissolved amount ([1]; water, elution time 60 min): 7374.5 µg/mL
Dissolved amount ([1]; water, elution time 180 min): 8826.1 µg/mL
Dissolved amount ([1]; water, elution time 360 min): 8948.1 µg/mL
Dissolved amount [2, 4]: 5113.7 µg/mL
Dissolved amount [2, 5]: 7012.3 µg/mL
Dissolved amount [2, 6]: 9096.3 µg/mL
SMILES: CC1(C)[C@@H](O[C@H]2O[C@H](C(=O)O)[C@@H](O)[C@H](O)[C@H]2O[C@@H]2O[C@H](C(=O)O)[C@@H](O)[C@H](O)[C@H]2O)CC[C@]2(C)[C@H]3C(=O)C=C4[C@@H]5C[C@@](C)(C(=O)O)CC[C@]5(C)CC[C@@]4(C)[C@]3(C)CC[C@@H]12 [Comparative Example 16, Ammonium Glycyrrhizinate]

Dissolved amount [1, 3]: 180.3 µg/mL
Dissolved amount [2, 11]: 335.2 µg/mL
SMILES: CCC1(c2ccccc2)C(=O)NCNC1=O [compound 14, Primidone]

Dissolved amount ([1]; Allopurinol, water, elution time 3 min): 578.2 µg/mL
Dissolved amount ([1]; Allopurinol, water, elution time 10 min): 679.4 µg/mL
Dissolved amount ([1]; Allopurinol, water, elution time 30 min): 773.9 µg/mL
Dissolved amount ([1]; Allopurinol, water, elution time 120 min): 741.5 µg/mL
Dissolved amount ([1]; Allopurinol, water, elution time 360 min): 712.5 µg/mL
Dissolved amount ([2]; Allopurinol, 2nd fluid for disintegration test, elution time 3 min): 565.4 µg/mL
Dissolved amount ([2]; Allopurinol, 2nd fluid for disintegration test, elution time 10 min): 672.6 µg/mL
Dissolved amount ([2]; Allopurinol, 2nd fluid for disintegration test, elution time 30 min): 725.7 µg/mL
Dissolved amount ([2]; Allopurinol, 2nd fluid for disintegration test, elution time 120 min): 722.8 µg/mL
Dissolved amount ([2]; Allopurinol, 2nd fluid for disintegration test, elution time 360 min): 696.1 µg/mL
SMILES: Oc1ncnc2[nH]ncc12 [compound 39, Allopurinol]

Dissolved amount ([1]; water, elution time 3 min): 291.2 µg/mL
Dissolved amount ([1]; water, elution time 10 min): 234.8 µg/mL
Dissolved amount ([1]; water, elution time 30 min): 214.3 µg/mL
Dissolved amount ([1]; water, elution time 120 min): 159.5 µg/mL
Dissolved amount ([1]; water, elution time 360 min): 153.0 µg/mL
Dissolved amount [2, 5]: 346.6 µg/mL
Dissolved amount [2, 6]: 352.2 µg/mL
Dissolved amount [2, 7]: 413.9 µg/mL
Dissolved amount [2, 12]: 282.1 µg/mL
Dissolved amount [2, 10]: 199.3 µg/mL
SMILES: NC(=O)N1c2ccccc2C=Cc2ccccc21 [compound 22, Carbamazepine]

Reference: patent publication US9023398B2, “Method for improving the aqueous solubility of poorly-soluble substances” (Kabushiki Kaisha Sangi, priority 2009, dated 2015)
